This is an account of results in patent US7514443B2, “Substituted pyrazolo[1,5-a]pyrimidines as inhibitors of metabotropic glutamate receptors” (Hoffmann-La Roche Inc., priority 2003, dated 2009).

In one data set the target is T1, rat mGlu2 receptor (Rattus norvegicus, UniProt P31421).
T1 construct: expressed in transfected cells; membranes prepared from them
In words: [3H]-LY354740 binding on mGlu2 transfected CHO cell membranes. The conditions noted are these: inhibition of 10 nM [3H]-LY354740 binding, membranes of mGlu2 transfected CHO cells, room temperature, 1 hour; read-out: mGluR2 Ki. From the text: [^3H]-LY354740 Binding on mGlu2 Transfected CHO Cell Membranes
Transfection and cell culture: cDNA encoding the rat mGlu2 receptor protein in pBluescript II was subcloned into the eukaryotic expression vector pcDNA I-amp from Invitrogen (NV Leek, The Netherlands). This vector construct (pcD1mGR2) was co-transfected with a psvNeo plasmid encoding the gene for neomycin resistance, into CHO cells by a modified calcium phosphate method described by Chen & Okayama (1988). The cells were maintained in Dulbecco's Modified Eagle medium with reduced L-glutamine (2 mM final concentration) and 10% dialyzed foetal calf serum from Gibco BRL (Basel, Switzerland). Selection was made in the presence of G-418 (1000 μg/ml final). Clones were identified by reverse transcription of 5 μg total RNA, follow by PCR using mGlu2 receptor specific primers 5′-[…]-3′ (SEQ ID NO: 1) and 5′-[…]-3′ (SEQ ID NO:2) in 60 mM Tris HCl (pH 10), 15 mM (NH4)2SO4, 2 mM MgCl2, 25 units/ml Taq Polymerase with 30 cycles annealing at 60° C. for 1 min., extension at 72° C. for 30 s, and 1 min. 95° C. denaturation.
Membrane preparation: Cells, cultured as above, were harvested and washed three times with cold PBS and frozen at −80° C. The pellet was resuspended in cold 20 mM HEPES-NaOH buffer containing 10 mM EDTA (pH 7.4), and homogenized with a polytron (Kinematica, AG, Littau, Switzerland) for 10 s at 10 000 rpm. After centrifugation for 30 min. at 4° C., the pellet was washed once with the same buffer, and once with cold 20 mM HEPES-NaOH buffer containing 0.1 mM EDTA, (pH 7.4). Protein content was measured using the Pierce method (Socochim, Lausanne, Switzerland) using bovine serum albumin as standard.
[^3H]-LY354740 binding: After thawing, the membranes were resuspended in cold 50 mM Tris-HCl buffer containing 2 mM MgCl2 and 2 mM CaCl2, (pH 7) (binding buffer). The final concentration of the membranes in the assays was 25 μg protein/ml. Inhibition experiments were performed with membranes incubated with 10 nM [^3H]-LY354740 at room temperature, for 1 hour, in the presence of various concentrations of the compound to be tested. Following the incubations, membranes were filtered onto Whatmann GF/C glass fiber filters and washed 5 times with cold binding buffer. Non specific binding was measured in the presence of 10 μM DCG IV. After transfer of the filters into plastic vials containing 10 ml of Ultima-gold scintillation fluid (Packard, Zürich, Switzerland), the radioactivity was measured by liquid scintillation in a Tri-Carb 2500 TR counter (Packard, Zürich, Switzerland).
Data analysis: The inhibition curves were fitted with a four parameter logistic equation giving IC50 values, and Hill coefficients.

T1 sequence (P31421 19-872): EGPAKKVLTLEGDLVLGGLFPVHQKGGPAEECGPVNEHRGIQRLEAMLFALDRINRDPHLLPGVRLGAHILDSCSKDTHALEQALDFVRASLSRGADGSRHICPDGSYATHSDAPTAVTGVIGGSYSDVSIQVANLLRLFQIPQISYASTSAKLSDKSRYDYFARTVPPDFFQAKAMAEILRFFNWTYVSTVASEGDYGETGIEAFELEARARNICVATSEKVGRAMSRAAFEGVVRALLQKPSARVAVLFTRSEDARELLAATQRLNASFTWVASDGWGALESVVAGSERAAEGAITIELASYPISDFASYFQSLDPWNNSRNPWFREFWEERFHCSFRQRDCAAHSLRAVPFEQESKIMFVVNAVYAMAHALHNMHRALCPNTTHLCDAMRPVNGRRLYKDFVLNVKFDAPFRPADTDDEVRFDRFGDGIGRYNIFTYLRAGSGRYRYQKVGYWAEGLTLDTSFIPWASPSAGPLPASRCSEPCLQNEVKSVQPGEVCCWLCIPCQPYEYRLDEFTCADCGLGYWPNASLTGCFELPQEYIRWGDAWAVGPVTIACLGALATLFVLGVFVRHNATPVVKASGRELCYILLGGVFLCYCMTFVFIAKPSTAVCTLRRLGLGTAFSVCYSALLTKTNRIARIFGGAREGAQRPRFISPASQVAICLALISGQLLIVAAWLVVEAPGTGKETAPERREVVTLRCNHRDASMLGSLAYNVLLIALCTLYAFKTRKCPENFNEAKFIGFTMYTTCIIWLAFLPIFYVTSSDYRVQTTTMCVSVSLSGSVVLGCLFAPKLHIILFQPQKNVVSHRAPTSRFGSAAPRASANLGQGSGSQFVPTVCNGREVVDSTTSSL

As usually defined, the Ki is the dissociation constant of the complex between target and ligand, obtained from inhibition or displacement. By melting point is commonly meant the temperature, or range, at which the solid turns liquid. Consider `N#Cc1ncn2c(C(F)(F)F)cc(-c3ccc(Cl)c(Cl)c3)nc12` [Example 5.20, 5-(3,4-Dichloro-phenyl)-7-trifluoromethyl-imidazo[1,5-a]pyrimidine-8-carbonitrile], for which the melting point was found to be 219 °C. In addition, the inhibition constant (Ki) at rat mGlu2 receptor was found to be 43 nM.

With `Cc1cc(-c2cc(C(F)(F)F)n3ncc(-c4cc[n+]([O-])c(C)c4)c3n2)ccc1Cl` [Example 7.1, 5-(4-Chloro-3-methyl-phenyl)-3-(2-methyl-1-oxy-pyridin-4-yl)-7-trifluoromethyl-pyrazolo[1,5-a]pyrimidine], on rat mGlu2 receptor, the inhibition constant Ki is 43.9 nM.

In turn, `FC(F)(F)c1cc(-c2ccc(Cl)c(Cl)c2)nc2c(-c3cccnc3)cnn12` [Example 4.9, 5-(3,4-Dichloro-phenyl)-3-pyridin-3-yl-7-trifluoromethyl-pyrazolo[1,5-a]pyrimidine] gave a melting point of 224 °C. Moreover, the Ki on rat mGlu2 receptor came to 47 nM.

As to `N#Cc1c(-c2ccc(OCC(F)(F)F)c(C(F)(F)F)c2)nn2c(C(F)(F)F)ccnc12` [Example 1.19, 2-(4-Trifluoroethoxy-3-trifluoromethyl-phenyl)-4-trifluoromethyl-pyrazolo[1,5-a]pyrimidine-8-carbonitrile], the Ki at rat mGlu2 receptor was 32 nM.

Compound `Cc1nn2c(C(F)(F)F)cc(-c3cccc(C(F)(F)F)c3)nc2c1C#N` [Example 2.2, 2-Methyl-5-(3-trifluoromethyl-phenyl)-7-trifluoromethyl-pyrazolo[1,5-a]pyrimidine-3-carbonitrile] yielded a melting point of 215 °C. The Ki at rat mGlu2 receptor is 72 nM.

`FC(F)(F)COc1ccc(-c2cc(C(F)(F)F)n3ncc(-c4ccncc4)c3n2)cc1C(F)(F)F` [Example 4.43, 5-[4-(2,2,2-Trifluorothoxy)-3-trifluoromethyl-phenyl]-3-pyridin-4-yl-7-trifluoromethyl-pyrazolo[1,5-a]pyrimidine]: the melting point amounted to 247 °C. Moreover, the Ki on rat mGlu2 receptor stood at 48 nM.

In the case of `Cc1cc(-c2cnn3c(C(F)(F)F)cc(-c4cccc(C(F)(F)F)c4)nc23)cc(C)n1` [Example 4.24, 5-(3-Trifluoromethyl-phenyl)-3-(2,6-dimethyl-pyridin-4-yl)-7-trifluoromethyl-pyrazolo[1,5-a]pyrimidine], the melting point was 236 °C. For the same compound, at rat mGlu2 receptor, the Ki is 43 nM.

With `CCOc1ccc(-c2cc(C(F)(F)F)n3ncc(-c4cccnc4)c3n2)cc1C(F)(F)F` [Example 4.40, 5-(4-Ethoxy-3-trifluoromethyl-phenyl)-3-pyridin-3-yl-7-trifluoromethyl-pyrazolo[1,5-a]pyrimidine], the melting point came to 178 °C.

`Cc1cc(-c2cc(C(F)(F)F)n3cnc(-c4ccncc4)c3n2)ccc1Cl` [Example 8.10, 2-(4-Chloro-3-methyl-phenyl)-8-pyridin-4-yl-4-trifluoromethyl-imidazo[1,5-a]pyrimidine]: the melting point was determined as 254 °C.

For the compound `Fc1ccc(-c2cc(C(F)(F)F)n3ncc(-c4cccnc4)c3n2)cc1Cl` [Example 4.6, 5-(3-Chloro-4-fluoro-phenyl)-3-pyridin-3-yl-7-trifluoromethyl-pyrazolo[1,5-a]pyrimidine], the melting point turned out to be 190 °C.

The compound `Cc1cc(-c2ncn3c(C(F)(F)F)cc(-c4ccc(C(F)(F)F)c(OCC(F)(F)F)c4)nc23)ccn1` [Example 8.33, 8-(2-Methyl-pyridin-4-yl)-2-[3-(2,2,2-trifluoro-ethoxy)-4-trifluoromethyl-phenyl]-4-trifluoromethyl-imidazo[1,5-a]pyrimidine] registered a melting point of 189 °C.

Take `Cc1cc(-c2ncn3c(C(F)(F)F)cc(-c4ccc(F)c(Cl)c4)nc23)ccn1` [Example 8.22, 2-(3-Chloro-4-fluoro-phenyl)-8-(2-methyl-pyridin-4-yl)-4-trifluoromethyl-imidazo[1,5-a]pyrimidine]: the melting point came out at 255 °C.

The compound `OCc1cc(-c2cnn3c(C(F)(F)F)cc(-c4ccc(Cl)c(Cl)c4)nc23)ccn1` [Example 6.4, {4-[5-(3,4-Dichloro-phenyl)-7-trifluoromethyl-pyrazolo[1,5-a]pyrimidin-3-yl]-pyridin-2-yl}-methanol] had a melting point of 233 °C.

With `Cc1cc(-c2cnn3c(C(F)(F)F)cc(-c4ccc(C(F)(F)F)c(OCC(F)(F)F)c4)nc23)ccn1` [Example 4.52, 3-(2-Methyl-pyridin-4-yl)-5-[3-(2,2,2-trifluoro-ethoxy)-4-trifluoromethyl-phenyl]-7-trifluoromethyl-pyrazolo[1,5-a]pyrimidine], the melting point turned out to be 201 °C.

Regarding `Fc1cc(-c2cc(C(F)(F)F)n3ncc(-c4cccnc4)c3n2)ccc1C(F)(F)F` [Example 4.18, 5-(3-Fluoro-4-trifluoromethyl-phenyl)-3-pyridin-3-yl-7-trifluoromethyl-pyrazolo[1,5-a]pyrimidine], the melting point was found to be 162 °C.

For the compound `Cc1cc(-c2ncn3c(C(F)(F)F)cc(-c4ccc(Cl)c(C)c4)nc23)ccn1` [Example 8.21, 2-(4-Chloro-3-methyl-phenyl)-8-(2-methyl-pyridin-4-yl)-4-trifluoromethyl-imidazo[1,5-a]pyrimidine], the melting point was found to be 246 °C.

`Fc1cc(-c2cc(C(F)(F)F)n3ncc(-c4ccncc4)c3n2)ccc1C(F)(F)F` [Example 4.17, 5-(3-Fluoro-4-trifluoromethyl-phenyl)-3-pyridin-4-yl-7-trifluoromethyl-pyrazolo[1,5-a]pyrimidine] came in with a melting point of 262 °C.

`Cc1cc(-c2cnn3c(C(F)(F)F)cc(-c4ccc(OCC(F)(F)F)c(C(F)(F)F)c4)nc23)cc(C)n1` [Example 4.45, 5-[4-(2,2,2-Trifluoroethoxy)-3-trifluoromethyl-phenyl]-3-(2,6-dimethyl-pyridin-4-yl)-7-trifluoromethyl-pyrazolo[1,5-a]pyrimidine] registered a melting point of 229 °C.

Regarding `FC(F)(F)c1cc(-c2ccc(Cl)c(Cl)c2)nc2c(-c3ccccn3)cnn12` [Example 4.11, 5-(3,4-Dichloro-phenyl)-3-pyridin-2-yl-7-trifluoromethyl-pyrazolo[1,5-a]pyrimidine], the melting point stood at 188 °C.

As to `Fc1ccc(-c2cc(C(F)(F)F)n3ncc(-c4ccncc4)c3n2)cc1Cl` [Example 4.7, 5-(3-Chloro-4-fluoro-phenyl)-3-pyridin-4-yl-7-trifluoromethyl-pyrazolo[1,5-a]pyrimidine], the melting point amounted to 265 °C.

`FC(F)(F)c1ccc(-c2cc(C(F)(F)F)n3ncc(-c4ccncc4)c3n2)cc1C(F)(F)F` [Example 4.53, 5-(3,4-Bis-trifluoromethyl-phenyl)-3-pyridin-4-yl-7-trifluoromethyl-pyrazolo[1,5-a]pyrimidine] had a melting point of 209 °C.

Compound `Cc1cc(-c2ncn3c(C(F)(F)F)cc(-c4ccc(C(F)(F)F)cc4)nc23)ccn1` [Example 8.24, 8-(2-Methyl-pyridin-4-yl)-4-trifluoromethyl-2-(4-trifluoromethyl-phenyl)-imidazo[1,5-a]pyrimidine] displayed a melting point of 257 °C.

In the case of `Cc1cc(-c2cc(C(F)(F)F)n3ncc(-c4ccnc(CO)c4)c3n2)ccc1C(F)(F)F` [Example 6.2, 5-(3-Methyl-4-trifluoromethyl-phenyl)-3-(2-hydroxymethyl-pyridin-4-yl)-7-trifluoromethyl-pyrazolo[1,5-a]pyrimidine], the melting point worked out at 231 °C.
